# Data taken from patent US8637525B2, “Compounds for the reduction of beta-amyloid production” (Bristol-Myers Squibb Company, priority 2009, dated 2014).
# Structures can show the parent of a compound that is named as a salt.
# System: Aβ1-42 production
# Experiment: Cellular assay for inhibition of Aβ1-42 production (H4 APP751 SWE clone 8.20)
# Type: cell-based
# Conditions: 19 h, H4 APP751 SWE clone 8.20 cells, 19 h incubation; class symbols; read-out: Activity Rating (Aβ42 cellular IC50)
# Method in brief: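 Secreted peptide was quantified with a two-antibody homogeneous format combining Wallac-labelled 565, which recognises the Aβ42 end, and APC-labelled 26D6 at 0.8 and 75 ng/well respectively. Antibodies were diluted in 40 mM Tris-HCl, pH 7.4, 0.2% BSA and left overnight at 4 °C after a 19 h compound incubation.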
row,IC50 [µM],SMILES
1,0.1 to 1,"COc1cc(Nc2nc3c(c(N4CCNCC4)n2)CCC3c2ccc(F)cc2)ccc1-n1cnc(Cl)c1 (stereo not shown) [Example 31, N-(4-(4-chloro-1H-imidazol-1-yl)-3-methoxyphenyl)-7-(4-fluorophenyl)-4-(piperazin-1-yl)-6,7-dihydro-5H-cyclopenta[d]pyrimidin-2-amine]"
2,0.01 to 0.1,"CNC1CCN(c2nc(Nc3ccc(-n4cnc(Cl)c4)c(OC)c3)nc3c2CCC3c2ccc(F)cc2)C1 (stereo not shown) [Example 32, N-(4-(4-chloro-1H-imidazol-1-yl)-3-methoxyphenyl)-7-(4-fluorophenyl)-4-(3-(methylamino)pyrrolidin-1-yl)-6,7-dihydro-5H-cyclopenta[d]pyrimidin-2-amine]"
3,0.01 to 0.1,"COc1cc(Nc2nc3c(c(N4CC(N(C)C)C4)n2)CCC3c2ccc(F)cc2)ccc1-n1cnc(Cl)c1 (stereo not shown) [Example 34, N-(4-(4-chloro-1H-imidazol-1-yl)-3-methoxyphenyl)-4-(3-(dimethylamino)azetidin-1-yl)-7-(4-fluorophenyl)-6,7-dihydro-5H-cyclopenta[d]pyrimidin-2-amine]"
4,0.0015 to 0.0099,"CNc1nc(Nc2ccc(-n3cnc(C)n3)c(F)c2)nc2c1CCC2c1ccc(F)cc1 (stereo not shown) [Example 35, N^2-(3-fluoro-4-(3-methyl-1H-1,2,4-triazol-1-yl)phenyl)-7-(4-fluorophenyl)-N^4-methyl-6,7-dihydro-5H-cyclopenta[d]pyrimidine-2,4-diamine]"
5,0.1 to 1,"COc1cc(Nc2nc3c(c(N4CCC(F)(F)CC4)n2)CCC3c2ccc(F)cc2)ccc1-n1cnc(Cl)c1 (stereo not shown) [Example 39B, N-(4-(4-chloro-1H-imidazol-1-yl)-3-methoxyphenyl)-4-(4,4-difluoropiperidin-1-yl)-7-(4-fluorophenyl)-6,7-dihydro-5H-cyclopenta[d]pyrimidin-2-amine]"
6,0.01 to 0.1,"CCOCCCNc1nc(Nc2ccc(-n3cnc(Cl)c3)c(OC)c2)nc2c1CCC2c1ccc(F)cc1 (stereo not shown) [Example 42, N2-(4-(4-chloro-1H-imidazol-1-yl)-3-methoxyphenyl)-N4-(3-ethoxypropyl)-7-(4-fluorophenyl)-6,7-dihydro-5H-cyclopenta[d]pyrimidine-2,4-diamine]"
7,0.0015 to 0.0099,"[2H]C([2H])([2H])Nc1nc(Nc2ccc(-n3cnc(Cl)c3)c(OC)c2)nc2c1CCC2c1ccc(F)cc1 (stereo not shown) [Example 47, N^2-(4-(4-Chloro-1H-imidazol-1-yl)-3-methoxyphenyl)-7-(4-fluorophenyl)-N^4-trideuteromethyl-6,7-dihydro-5H-cyclopenta[d]pyrimidine-2,4-diamine]"
8,0.0015 to 0.0099,"CCNc1nc(Nc2ccc(-n3ncnc3C)c(F)c2)nc2c1COCC2c1ccc(F)cc1 (stereo not shown) [Example 59A, N4-ethyl-N2-(3-fluoro-4-(5-methyl-1H-1,2,4-triazol-1-yl)phenyl)-8-(4-fluorophenyl)-7,8-dihydro-5H-pyrano[4,3-d]pyrimidine-2,4-diamine]"
9,0.01 to 0.1,"CNc1nc(Nc2ccc(-n3cnc(Cl)c3)c(OC)c2)nc2c1COCC2c1ccc(F)cc1 (stereo not shown) [Example 60B, N2-(4-(4-chloro-1H-imidazol-1-yl)-3-methoxyphenyl)-8-(4-fluorophenyl)-N4-methyl-7,8-dihydro-5H-pyrano[4,3-d]pyrimidine-2,4-diamine]"
10,0.0015 to 0.0099,"CCN(C)c1nc(Nc2ccc(-n3cnc(Cl)c3)c(OC)c2)nc2c1COCC2c1ccc(F)cc1 (stereo not shown) [Example 62A, N2-(4-(4-chloro-1H-imidazol-1-yl)-3-methoxyphenyl)-N4-ethyl-8-(4-fluorophenyl)-N4-methyl-7,8-dihydro-5H-pyrano[4,3-d]pyrimidine-2,4-diamine]"

# Second part, the molecule before the results:
row,SMILES,IC50 [µM]
1,"COc1cc(Nc2nc3c(c(N4CC[C@@H](F)C4)n2)CCC3c2ccc(F)cc2)ccc1-n1cnc(Cl)c1 (stereo partly drawn) [Example 38, N-(4-(4-chloro-1H-imidazol-1-yl)-3-methoxyphenyl)-7-(4-fluorophenyl)-4-((R)-3-fluoropyrrolidin-1-yl)-6,7-dihydro-5H-cyclopenta[d]pyrimidin-2-amine]",0.01 to 0.1
2,"COc1cc(Nc2nc3c(c(N4CCC(C(F)(F)F)C4)n2)CCC3c2ccc(F)cc2)ccc1-n1cnc(Cl)c1 (stereo not shown) [Example 41A, N-(4-(4-chloro-1H-imidazol-1-yl)-3-methoxyphenyl)-7-(4-fluorophenyl)-4-(3-(trifluoromethyl)pyrrolidin-1-yl)-6,7-dihydro-5H-cyclopenta[d]pyrimidin-2-amine]",0.01 to 0.1
3,"CCNc1nc(Nc2ccc(-n3cnc(C)n3)c(OC)c2)nc2c1COCC2c1ccc(F)cc1 (stereo not shown) [Example 55B, N4-ethyl-8-(4-fluorophenyl)-N2-(3-methoxy-4-(3-methyl-1H-1,2,4-triazol-1-yl)phenyl)-7,8-dihydro-5H-pyrano[4,3-d]pyrimidine-2,4-diamine]",0.01 to 0.1

# Same assay, conditions: 19 h, H4 APP751 SWE clone 8.20 cells, 19 h incubation; read-out: Activity Rating (Aβ42 cellular IC50), numeric value
row,IC50 [µM],SMILES
1,0.018,"CCC(COC)Nc1nc(Nc2ccc(-n3cnc(Cl)c3)c(OC)c2)nc2c1CCC2c1ccc(F)cc1 [Example 48, N2-(4-(4-chloro-1H-imidazol-1-yl)-3-methoxyphenyl)-7-(4-fluorophenyl)-N4-((R)-1-methoxybutan-2-yl)-6,7-dihydro-5H-cyclopenta[d]pyrimidine-2,4-diamine, 2 TFA]"
2,0.0045,"CNc1nc(Nc2ccc(-n3cnc(Cl)c3)c(OC)c2)nc2c1COCC2c1ccccc1 (stereo not shown) [Example 51, N^2-(4-(4-chloro-1H-imidazol-1-yl)-3-methoxyphenyl)-N^4-methyl-8-phenyl-7,8-dihydro-5H-pyrano[4,3-d]pyrimidine-2,4-diamine]"

# The remaining lines, values behind:
row,SMILES,IC50 [µM]
1,"CNC1CN(c2nc(Nc3ccc(-n4cnc(Cl)c4)c(OC)c3)nc3c2CCC3c2ccc(F)cc2)C1 (stereo not shown) [Example 33, N-(4-(4-chloro-1H-imidazol-1-yl)-3-methoxyphenyl)-7-(4-fluorophenyl)-4-(3-(methylamino)azetidin-1-yl)-6,7-dihydro-5H-cyclopenta[d]pyrimidin-2-amine]",0.1
2,"COCC(Nc1nc(Nc2ccc(-n3cnc(Cl)c3)c(OC)c2)nc2c1CCC2c1ccc(F)cc1)C1CC1 (stereo not shown) [Example 45B, N2-(4-(4-chloro-1H-imidazol-1-yl)-3-methoxyphenyl)-N4-(1-cyclopropyl-2-methoxyethyl)-7-(4-fluorophenyl)-6,7-dihydro-5H-cyclopenta[d]pyrimidine-2,4-diamine]",0.0025
3,"CNc1nc(Nc2ccc(-n3cnc(Cl)c3)c(OC)c2)nc2c1COCC2c1ccc(F)cc1 (stereo not shown) [Example 60A, N2-(4-(4-chloro-1H-imidazol-1-yl)-3-methoxyphenyl)-8-(4-fluorophenyl)-N4-methyl-7,8-dihydro-5H-pyrano[4,3-d]pyrimidine-2,4-diamine]",0.0056
4,"CCN(C)c1nc(Nc2ccc(-n3cnc(Cl)c3)c(OC)c2)nc2c1COCC2c1ccc(F)cc1 (stereo not shown) [Example 62B, N2-(4-(4-chloro-1H-imidazol-1-yl)-3-methoxyphenyl)-N4-ethyl-8-(4-fluorophenyl)-N4-methyl-7,8-dihydro-5H-pyrano[4,3-d]pyrimidine-2,4-diamine]",0.086

# Same assay, conditions: H4 APP751 SWE clone 8.20 cells, 19 h incubation; class symbols; read-out: Activity Rating (Aβ42 cellular IC50)
row,IC50 [µM],SMILES
1,0.01 to 0.1,"COc1cc(Nc2nc3c(c(N4CC[C@@H](F)C4)n2)CCC3c2ccc(F)cc2)ccc1-n1cnc(Cl)c1 (stereo partly drawn) [Example 38B, N-(4-(4-chloro-1H-imidazol-1-yl)-3-methoxyphenyl)-7-(4-fluorophenyl)-4-((R)-3-fluoropyrrolidin-1-yl)-6,7-dihydro-5H-cyclopenta[d]pyrimidin-2-amine]"
2,0.01 to 0.1,"COc1cc(Nc2nc3c(c(N(C)C)n2)COCC3c2ccc(F)cc2)ccc1-n1cnc(Cl)c1 (stereo not shown) [Example 61B, N2-(4-(4-chloro-1H-imidazol-1-yl)-3-methoxyphenyl)-8-(4-fluorophenyl)-N4,N4-dimethyl-7,8-dihydro-5H-pyrano[4,3-d]pyrimidine-2,4-diamine]"

# More lines, now with the values behind:
row,SMILES,IC50 [µM]
1,"COc1cc(Nc2nc3c(c(N4CC=C(F)CC4)n2)CCC3c2ccc(F)cc2)ccc1-n1cnc(Cl)c1 (stereo not shown) [Example 40A, N-(4-(4-chloro-1H-imidazol-1-yl)-3-methoxyphenyl)-4-(4-fluoro-5,6-dihydropyridin-1(2H)-yl)-7-(4-fluorophenyl)-6,7-dihydro-5H-cyclopenta[d]pyrimidin-2-amine]",0.0015 to 0.0099
2,"COc1cc(Nc2nc3c(c(N4CC=C(F)CC4)n2)CCC3c2ccc(F)cc2)ccc1-n1cnc(Cl)c1 (stereo not shown) [Example 40B, N-(4-(4-chloro-1H-imidazol-1-yl)-3-methoxyphenyl)-4-(4-fluoro-5,6-dihydropyridin-1(2H)-yl)-7-(4-fluorophenyl)-6,7-dihydro-5H-cyclopenta[d]pyrimidin-2-amine]",0.1 to 1
3,"CNc1nc(Nc2ccc(-n3cnc(C)n3)c(OC)c2)nc2c1COCC2c1ccc(F)cc1 (stereo not shown) [Example 54A, 8-(4-fluorophenyl)-N2-(3-methoxy-4-(3-methyl-1H-1,2,4-triazol-1-yl)phenyl)-N4-methyl-7,8-dihydro-5H-pyrano[4,3-d]pyrimidine-2,4-diamine]",0.01 to 0.1
4,"CNc1nc(Nc2ccc(-n3cnc(C)n3)c(OC)c2)nc2c1COCC2c1ccc(F)cc1 (stereo not shown) [Example 54B, 8-(4-fluorophenyl)-N2-(3-methoxy-4-(3-methyl-1H-1,2,4-triazol-1-yl)phenyl)-N4-methyl-7,8-dihydro-5H-pyrano[4,3-d]pyrimidine-2,4-diamine]",0.0015 to 0.0099
5,"CCNc1nc(Nc2ccc(-n3cnc(Cl)c3)c(OC)c2)nc2c1COCC2c1ccc(F)cc1 (stereo not shown) [Example 56A, N2-(4-(4-chloro-1H-imidazol-1-yl)-3-methoxyphenyl)-N4-ethyl-8-(4-fluorophenyl)-7,8-dihydro-5H-pyrano[4,3-d]pyrimidine-2,4-diamine]",0.0015 to 0.0099
6,"CCNc1nc(Nc2ccc(-n3cnc(Cl)c3)c(OC)c2)nc2c1COCC2c1ccc(F)cc1 (stereo not shown) [Example 56B, N2-(4-(4-chloro-1H-imidazol-1-yl)-3-methoxyphenyl)-N4-ethyl-8-(4-fluorophenyl)-7,8-dihydro-5H-pyrano[4,3-d]pyrimidine-2,4-diamine]",0.01 to 0.1
7,"COc1cc(Nc2nc3c(c(N(C)C)n2)COCC3c2ccc(F)cc2)ccc1-n1cnc(Cl)c1 (stereo not shown) [Example 61A, N2-(4-(4-chloro-1H-imidazol-1-yl)-3-methoxyphenyl)-8-(4-fluorophenyl)-N4,N4-dimethyl-7,8-dihydro-5H-pyrano[4,3-d]pyrimidine-2,4-diamine]",0.0015 to 0.0099
